Assays:
[1] = assay type: physicochemical
Description: A solution of rebaudioside A (>97% pure by HPLC ) was prepared in double distilled water (12.5 gm in 50 mL, 25% concentration) by stirring the mixture at 40° C. for 5 minutes. An amorphous form of_rebaudioside A was formed by immediately using the clear solution for spray drying with the Lab-Plant spray drier SD-04 instrument (Lab-Plant Ltd., West Yorkshire, U.K.). The solution was fed through the feed pump into the nozzle atomizer which atomized it into a spray of droplets with the help of a constant flow of nitrogen/air. […] This dry powder (11-12 g, H2O 6.74%) was discharged continuously from the drying chamber and was collected in a bottle.

[2] = Rate of dissolution in H2O at 25° C. of rebaudioside A polymorph and amorphous forms; assay type: physicochemical

| Substance | solubility in water [1] [%] | Rate of dissolution in H2O at 25° C. (grade in words) [2] | Rate of dissolution in H2O at 25° C. ([2]; 5 minutes) | Rate of dissolution in H2O at 25° C. ([2]; 60 minutes) |
| --- | --- | --- | --- | --- |
| rebaudioside A [Form 4] | > 35.0 | High | (>35.0%/5 %/5 minutes |  |
| rebaudioside A [Form 1] |  | Very low |  | (<0.2%/60 %/60 minutes |
| rebaudioside A [Form 3] |  | High | (>30%/5 %/5 minutes |  |
| rebaudioside A [Form 2] |  | Intermediate | (<30%/5 %/5 minutes |  |

— patent publication US20070116800A1, “Chewing Gum with High-Potency Sweetener” (The Coca-Cola Company, priority 2005, published 2007)
